Results on eleven molecules are retold here after patent US9707202B2, “Certain chemical entities, compositions, and methods” (NEUPHARMA, INC., priority 2011, dated 2017).

In data set [1] the test system is A549 cells. Nature of the data set: Inhibition of cell growth in tumor cells (MTT assay). It is filed as cell-based. The settings on record: Homo sapiens, 72 h compound exposure. On the procedure:
Inhibition of cell growth by compounds was measured using MTT assay (Mosmann, T., Journal of Immunological Methods, 1983, 65, 55-63). Tumor cell lines were purchased from ATCC (American Type Culture Collection, Manassas, Va.). All cell lines were maintained in RPMI 1640 (Hyclone) supplemented with 10% fetal bovine serum (FBS, Hyclone), glutamine (2 mM, Hyclone), and antibiotics (penicillin 100 U/mL and streptomycin 50 µg/mL) at 37° C. in a humidified atmosphere of 5% CO2 in air. Taxol (positive control, Sigma) and compounds were dissolved in DMSO (Sigma), and the final concentration of DMSO in the medium was 1%. Tumor cells were plated in 96-well plates at densities from 4000 cells/well of a 96-well plate and allowed to adhere/grow for 24 h. They were then treated with various concentrations of drug for 72 h. 3-(4,5-Dimethylthiazol-2-yl)-2,5-diphenyltetrazolium bromide (MTT, Sigma) was used to determine the number of viable cells at the time of compound addition and the number of cells remaining after 72 h compound exposure. The number of cells remaining after 72 h was compared to the number of viable cells at the time of compound addition by measuring the absorbance at 570 nm, allowing for the calculation of growth inhibition.
All concentrations of compounds were tested in triplicate and controls were averaged over 4 wells. IC50 was calculated by plotting the concentration of compound vs the percentage of inhibition in treated wells using GraphPad Prism 5.

Data set [2] can be described thus: Equilibrium solubility in aqueous buffer. The settings on record: thermodynamic from solid, NaOAc/AcOH buffer (100 mM, pH 5.0), shaken at rt for 24 h, HPLC UV. It is filed as physicochemical. On the procedure:
The equilibrium solubility of compounds was measured in aqueous buffer. Excess amount of solid compound was added into buffer solution and the sample was briefly sonicated and then shaken at rt for 24 h. The sample was filtered and the concentration was analyzed by HPLC UV. A standard solution at 0.2 mg/mL was prepared in methanol or acetonitrile for each compound and used as an external standard for quantification.

pIC50: −log10 of the molar value. In brackets after ≈: the same amount, converted by molar mass.

In general, pIC50 refers to −log10 of the IC50, conventionally taken in molar units. `COc1ccc(/C=C/C(=O)CC(=O)/C=C/c2ccc(OC(=O)N(C)C)c(OC)c2)cc1OC` [4-((1E,6E)-7-(3,4-dimethoxyphenyl)-3,5-dioxohepta-1,6-dien-1-yl)-2-methoxyphenyl dimethylcarbamate] gave a pIC50 in data set [1] of 4.97.

Broadly, the solubility is the concentration that dissolves in the medium under given conditions. Read a low solubility as a poorly soluble substance. In data set [2], `COc1cc(/C=C/C(=O)CC(=O)/C=C/c2ccc(OC(=O)N3CCNCC3)c(OC)c2)ccc1O` [4-((1E,6E)-7-(4-hydroxy-3-methoxyphenyl)-3,5-dioxohepta-1,6-dien-1-yl)-2-methoxyphenyl piperazine-1-carboxylate] displayed a solubility at 24 h of 1390 µg/mL (≈ 2890 µM). Moreover, the pIC50 in data set [1] is 5.04.

For the molecule `COc1cc(/C=C/C(=O)CC(=O)/C=C/c2ccc(OC(=O)N(C)C)c(OC)c2)ccc1OCCO` [4-((1E,6E)-7-(4-(2-hydroxyethoxy)-3-methoxyphenyl)-3,5-dioxohepta-1,6-dien-1-yl)-2-methoxyphenyl dimethylcarbamate], in data set [1], the negative-log IC50 (pIC50) was 5.04.

In data set [2], `COc1cc(/C=C/C(=O)CC(=O)/C=C/c2ccc(OC(=O)N3CCN(C)CC3)c(OC)c2)ccc1O` [4-((1E,6E)-7-(4-hydroxy-3-methoxyphenyl)-3,5-dioxohepta-1,6-dien-1-yl)-2-methoxyphenyl 4-methylpiperazine-1-carboxylate] showed a solubility at 24 h of 18 µg/mL (≈ 36.4 µM). This molecule also showed a pIC50 in data set [1] of 5.42.

In the case of `COc1cc(/C=C/C(=O)CC(=O)/C=C/c2ccc(O)c(OC)c2)ccc1O` [Curcumin, reference compound], the solubility at 24 h in data set [2] (aqueous buffer (NaOAc/AcOH)) was less than 1 µg/mL. Also, in data set [1], the pIC50 is less than 4.52.

The molecule `COc1cc(/C=C/C(=O)CC(=O)/C=C/c2ccc(OC(=O)N3CCOCC3)c(OC)c2)ccc1O` [4-((1E,6E)-7-(4-hydroxy-3-methoxyphenyl)-3,5-dioxohepta-1,6-dien-1-yl)-2-methoxyphenyl morpholine-4-carboxylate] had a pIC50 in data set [1] of 5.14.

On to `COc1cc(/C=C/C(=O)CC(=O)/C=C/c2ccc(OC(=O)N3CCCCC3)c(OC)c2)ccc1O` [4-((1E,6E)-7-(4-hydroxy-3-methoxyphenyl)-3,5-dioxohepta-1,6-dien-1-yl)-2-methoxyphenyl piperidine-1-carboxylate], for which the pIC50 in data set [1] is 5.10.

In data set [1], `COc1cc(/C=C/C(=O)CC(=O)/C=C/c2ccc(OC(=O)N(C)C)c(OC)c2)ccc1O` [4-((1E,6E)-7-(4-hydroxy-3-methoxyphenyl)-3,5-dioxohepta-1,6-dien-1-yl)-2-methoxyphenyl dimethylcarbamate] showed a pIC50 of 5.64.

Molecule `COc1ccc(/C=C/C(=O)CC(=O)/C=C/c2ccc(OC(=O)N3CCN(C)CC3)c(OC)c2)cc1OC` [4-((1E,6E)-7-(3,4-dimethoxyphenyl)-3,5-dioxohepta-1,6-dien-1-yl)-2-methoxyphenyl 4-methylpiperazine-1-carboxylate] showed a solubility at 24 h in data set [2] of 320 µg/mL (≈ 629 µM). In addition, the pIC50 in data set [1] was 5.37.

`COc1ccc(/C=C/C(=O)CC(=O)/C=C/c2ccc(OC(=O)N3CCOCC3)c(OC)c2)cc1OC` [4-((1E,6E)-7-(3,4-dimethoxyphenyl)-3,5-dioxohepta-1,6-dien-1-yl)-2-methoxyphenyl morpholine-4-carboxylate] gave a pIC50 in data set [1] of 5.34.

In data set [1], `COc1cc(/C=C/C(=O)CC(=O)/C=C/c2ccc(OC(=O)N3CCCCC3)c(OC)c2)ccc1OCCO` [4-((1E,6E)-7-(4-(2-hydroxyethoxy)-3-methoxyphenyl)-3,5-dioxohepta-1,6-dien-1-yl)-2-methoxyphenyl piperidine-1-carboxylate] had a pIC50 of 4.96.
